Measurements from the NIST ThermoML archive (doi:10.1016/j.jct.2015.05.005).
Numbers after ± are expanded uncertainties.

Conditions: Liquid mixture 1, Pendant drop shape

Compound: O=C=O [carbon dioxide] + O
- interfacial tension (298.4 K, 6830 kPa): 31 ± 0.49 mN/m
- interfacial tension (298.5 K, 7200 kPa): 30.99 ± 0.4 mN/m
- interfacial tension (298.5 K, 8100 kPa): 31.09 ± 0.33 mN/m
- interfacial tension (298.6 K, 6490 kPa): 30.79 ± 1.9 mN/m
- interfacial tension (298.6 K, 8970 kPa): 30.98 ± 0.34 mN/m
- interfacial tension (298.6 K, 10630 kPa): 30.73 ± 0.34 mN/m
- interfacial tension (298.6 K, 13180 kPa): 30.62 ± 0.37 mN/m
- interfacial tension (298.6 K, 15150 kPa): 30.81 ± 0.42 mN/m
- interfacial tension (298.6 K, 20830 kPa): 29.84 ± 0.49 mN/m
